What was measured:
AHR = experiment: ChIP analysis of the interaction of AHR with CABS and NCABS in foxp3; format: cell-based, mouse; conditions: CD4+ T cells treated with TCDD for 90'
Experimental: Briefly, cells were treated for 90′ with TCDD, fixed with 1% formaldehyde for 15 minutes and quenched with 0.125 M glycine. Chromatin was isolated and sheared to an average length of 300-500 bp by sonication. Genomic DNA (input) was prepared by treating aliquots of chromatin with RNase, proteinase K and heat for de-crosslinking, followed by ethanol precipitation. AHR-bound DNA sequences were immuno-precipitated with an AHR-specific antibody (Biomol SA-210). Crosslinks were reversed by incubation overnight at 65° C., and ChIP DNA was purified by phenol-chloroform extraction and ethanol precipitation. Quantitative PCR reactions were then performed using the following primer pairs:
Experimental Ct values were converted to copy numbers detected by comparison with a DNA standard curve run on the same PCR plates. Copy number values were then normalized for primer efficiency by dividing by the values obtained using Input DNA and the same primer pairs. Error bars represent standard deviations calculated from the triplicate determinations.

zFoxp3 = zFoxp3 expression in zebrafish embryos by real time PCR; format: in vivo; conditions: 3-day post-fertilization zebrafish embryos, TCDD in water, 72 hours
Experimental: The expression of zFoxp3 was then analyzed by real-time PCR on FACS-sorted lymphocytes, myelomonocytes and erythrocytes (Traver et al., Nat Immunol 4, 1238-46 (2003)). RNA was extracted from cells using RNAeasy columns (Qiagen, Valencia, Calif., USA), complementary DNA was prepared as recommended (Bio-Rad Laboratories, Hercules, Calif., USA) and used as template for real time PCR. The expression of Foxp3 was quantified with specific primers and probes (Applied Biosystems, Foster City, Calif., USA) on the GeneAmp 5500 Sequence Detection System (Applied Biosystems). Expression was normalized to the expression of the housekeeping gene, GAPDH.
TCDD was also used to characterize the functional relationship between AHR and Foxp3.

CD4+CD25- T cells = CD4+CD25- T cells activated with antibodies to CD3 in the presence of TCDD; format: cell-based, mouse; conditions: incubation with TCDD
From the text: To rule out any direct cytotoxic or pro-apoptotic effect of TCDD on effector T cells, purified mouse CD4^+CD25^− T cells were activated in vitro with antibodies to CD3 in the presence of TCDD.

mouse Foxp3 locus = experiment: Zebrafish microinjected with renilla-tagged mouse Foxp3 BAC; format: in vivo; conditions: total zebrafish lysates six days after microinjection, increasing amounts of TCDD
Experimental: A modified zebrafish based screening assay was established by microinjecting fertilized zebrafish eggs with a BAC construct encoding the complete mouse Foxp3 locus, with a renilla reporter inserted after the Foxp3 methionine start codon (ATG). Six days after microinjection, renilla activity was determined in total zebrafish lysates.

[1] = tested on: CD4+ CD62L+CD45RO- T cells; experiment: In vitro differentiation of human naive CD4+ T cells, suppression and real time PCR; format: cell-based
Experimental: To investigate the potential of AHR targeting for the induction of human Treg we activated purified naïve CD4^+ CD62L^+CD45RO^− T cells for healthy donors for 5 days with antibodies to CD3 and CD28 in the presence of TCDD 100 nM or TGFb1 2.5 ng/ml or both.
To study the functionality of the putative human Treg induced in the presence of TCDD we studied their suppressive activity of CD4^+ CD25^High and CD4^+CD25^Low T cells following 5 days of activation in the of TCDD or TGFb1 2.5 ng/ml or both.
To investigate the mechanism mediating the suppressive activity of the TCDD-induced Treg, we analyzed them by real time PCR for the expression of several genes that have been previously linked to the suppressive function of Treg. […] Accordingly, IL-10-specific blocking antibodies could interfere with the suppressive activity of Treg induced with TCDD, but not the of those induced with TGFb1 and TCDD (FIG. 42). Thus, TCDD-induced CD4^+CD25^High T cells are FoxP3^− regulatory cells whose suppressive activity is mediated, at least partially, via IL-10, resembling the phenotype of type 1 Treg (Roncarolo et al., Immunol Rev. 212, 28 (2006); Roncarolo and Gregori, Eur J Immunol. 38, 925 (2008)).

[2] = tested on: CD4+Foxp3:GFP- 2D2 T cells; experiment: In vivo conversion of transferred CD4+Foxp3:GFP- 2D2 T cells into Treg; conditions: recipients given 1 μg/mouse TCDD, immunized 2 days later with MOG35-55
Experimental: To investigate if new Treg could also be generated in vivo following TCDD administration, we transferred CD4^+Foxp3:GFP^− 2D2 T cells from CD90.2 donors into wild type CD90.1 recipients. CD4^+Foxp3:GFP^− 2D2 T cells express a MOG35-55-specific T cell receptor. The recipients were administered 1 μg/mouse TCDD and were immunized 2 days later with MOG35-55. CD4^+Foxp3:GFP^+ CD90.2 T cells (donor cells that underwent conversion into Treg upon treatment with TCDD) were then quantified by FACS.

[3] = tested on: MOG35-55-specific Treg and Teff; experiment: MOG35-55-specific Treg and Teff by MHC class II tetramer FACS; format: in vivo, mouse; conditions: Foxp3gfp mice, ITE 200 mg/mice intraperitoneal daily
Experimental: To investigate the effect of AHR activation by ITE on the frequency of MOG35-55 specific Treg and effector T cells (Teff), Foxp3^gpf knock in mice were immunized with MOG35-55/CFA, treated daily with intreaperitoneal ITE ([…]) and MOG35-55-specific Treg (CD4^+ FoxP3:GFP^+) and Teff (CD4^+ FoxP3:GFP^−) were analyzed by FACS using recombinant MHC class II tetramers containing […] or the control peptide TMEV70-86.

[4] = in vivo; cited from earlier work

| SMILES | AHR binding to NCABS-1, NCABS-3 in foxp3 (ChIP) (AHR) | AHR binding to the CABS and NCABS-2 in foxp3 (ChIP) (AHR) | zFoxp3 expression (zFoxp3) | T cell apoptosis (annexin-FITC staining) (CD4+CD25- T cells; antibodies to CD3) | proliferative response (CD4+CD25- T cells; antibodies to CD3, 72 hours) | renilla luciferase activity (murine Foxp3 expression) (mouse Foxp3 locus) | induction of suppressive (regulatory) T cells ([1]; 5 days activation with antibodies to CD3 and CD28, TGFb1 2.5 ng/ml or TCDD alone) | IL-10 expression (real time PCR) ([1]; TCDD 100 nM) | FoxP3 expression (real time PCR) ([1]; TCDD 100 nM and TGFb1 2.5 ng/ml) | FoxP3 expression (real time PCR) ([1]; TCDD 100 nM in the absence of TGFb1) | induction of CD4+ FoxP3+ T cells ([1]; TCDD 100 nM, antibodies to CD3 and CD28, 5 days) | suppressive activity of T cells generated with TCDD ([1]; TCDD together with TGFb1 2.5 ng/ml) | conversion of CD4+Foxp3:GFP- CD90.2 donor T cells into Treg cells [2] | frequency of MOG35-55-specific Teff [3] | frequency of MOG35-55-specific Treg [3] | toxic effects [4] |
| --- | --- | --- | --- | --- | --- | --- | --- | --- | --- | --- | --- | --- | --- | --- | --- | --- |
| Clc1cc2c(cc1Cl)Oc1cc(Cl)c(Cl)cc1O2 [TCDD, 2,3,7,8 tetrachlorodibenzo-p-dioxin] | No significant increase in AHR binding | increased AHR binding to the CABS and NCABS-2 | dose-dependent increase in zFoxp3 expression | did not increase T cell apoptosis | did not decrease the proliferative response | increased in the presence of TCDD in a dose-dependent manner | generation of both CD4^+ CD25^High and CD4^+ CD25^Low functional human regulatory T cells | increased levels of IL-10 | significantly up-regulated | marginal induction of FoxP3 expression | in some (FIG. 36) but not all human samples | amplified in the presence of TGFb1 | significant |  |  |  |
| COC(=O)c1csc(C(=O)c2c[nH]c3ccccc23)n1 [ITE, 2-(1′H-indole-3′-carbonyl)-thiazole-4-carboxylic acid methyl ester] |  |  |  |  |  |  |  |  |  |  |  |  |  | decrease in the frequency | concomitant increase in the frequency | do not display the toxic effects |

Reference: US11253589B2, “Modulation of the immune response” (priority 2007, dated 2022)
